One series relates to Colo205. Kind of series: Resazurin reduction cell viability assay. The class given is cell-based, human. The settings on record: 72 h continuous treatment, read-out: Colo205 IC50 ± SD. As to the method:
(§1) Solid tumor cell lines were seeded in 100 μl medium into 96-well plates at an appropriate cell number determined by a cell dilution assay (Cal51–2000 cells/well; Colo205, MCF10A and 184A1–3000 cells/well and MDA-MB-468, HCC1954–4000 cells/well). AML suspension cells were seeded in 96-well plates at approximately 3000 cells per well. Cells were incubated overnight at 37°C, 5% CO2. The following day, 100 μl fresh medium containing increasing concentrations of appropriate compound was added and the cells were incubated for up to 72 h at 37°C, 5% CO2. For pulse treatment of solid (adherent) tumor cell lines, medium was aspirated and replaced with fresh drug-free medium. For pulse treatment of suspension lines, plates were centrifuged at 478 xg for 5 min at the end of the incubation period with compound, medium containing compound was carefully aspirated and replaced with fresh compound-free medium. A total of 72 h after the start of treatment, 20 μl of a 10X stock of resazurin sodium salt (Sigma-Aldrich, Dorset, UK) prepared in medium was added to the cells and incubated for up to 3 h. […] was measured on the Wallac Victor plate reader (Cambridge, UK) at 544–595 nm. IC50/70/90 calculations were determined in XLFit.

A further series relates to THP-1. Kind of series: Resazurin reduction cell viability assay. The class given is cell-based, human. The conditions noted are these: Homo sapiens, THP-1, 72 h, THP-1; value the 7 x 7 combination matrix spans; 72 h; read-out: IC50 value of each compound (single agent). As to the method:
as §1
On the technique in general: Resazurin is reduced to fluorescent resorufin, in cell work by metabolically active cells.

The subject of series [1] is subcutaneous EOL-1 tumors. The series is described as follows: EOL-1 human eosinophilic leukemia xenograft model. The class given is in vivo, SCID mice. As to the method: Female athymic CB-17 SCID (Harlan Sprague-Dawley) mice between 6–7 weeks of age weighing approximately 22 grams were housed in a 12-h light-dark cycle at 70–74°F (21–23°C) and 40–60% humidity. Animals were fed water ad libitum (reverse osmosis, 2 ppm Cl2) and an irradiated standard rodent diet (Teklad 2919) consisting of 19% protein, 9% fat, and 4% fiber. Mice were injected subcutaneously into the right flank with 1x10^7 EOL-1 cells in 100 μl of a 1:1 HBSS:Matrigel solution. When tumors reached approximately 125–250 mm^3, animals were matched by tumor volume and then randomized into treatment and control groups before dosing was initiated. […] Cytarabine, also known as cytosine arabinoside (AraC), was administered by daily ip injection for 5 days only. Agent toxicity was assessed by effects on body weight and clinical signs. Animals were weighed twice weekly using a digital scale (Ohaus SP601). Beginning on Day 0, tumor dimensions were measured twice weekly by digital caliper (Fowler Ultra-Cal IV); tumor volume was calculated using the formula TV = width^2 x length x 0.52. […] Statistical differences in tumor volume were determined using a two-tailed One-Way Analysis of Variance (ANOVA) followed by the Dunnett’s multiple comparisons test comparing treated groups with control. For animal welfare the following methods were used: (a) methods of sacrifice: isoflurane anesthesia followed by cervical dislocation; (b) methods of anesthesia and/or analgesia: isoflurane anesthesia and (c) efforts to alleviate suffering: carprofen if animal veterinarian decides necessary or euthanasia.
On the technique in general: Xenograft models place foreign cells or tissue in a host animal.

Results on 6 compounds are retold here after paper PMC7347136 (PLoS ONE, 2020).

A word on the IC50: it is the concentration that gives 50% inhibition.

Read-outs that look alike come from different tables or passages of the source.

As to `CN1CC[C@H](c2c(O)cc(O)c3c(=O)cc(-c4ccccc4Cl)oc23)[C@H](O)C1` [Alvocidib (flavopiridol), reference compound], the IC50 in the series with Colo205 amounted to 130 ± 20 nM; in the series with Colo205 (Homo sapiens, COLO 205, 72 h), 129 nM.
Take `CC1(C)CCC(c2ccc(Cl)cc2)=C(CN2CCN(c3ccc(C(=O)NS(=O)(=O)c4ccc(N[C@H](CCN5CCOCC5)CSc5ccccc5)c(S(=O)(=O)C(F)(F)F)c4)cc3)CC2)C1` [ABT-263, reference compound]: the IC50 with THP-1 came out at 270 nM.
For the compound `Nc1ccn([C@@H]2O[C@H](CO)[C@@H](O)[C@@H]2O)c(=O)n1` [cytarabine, cytosine arabinoside, reference compound], the “transient body weight loss” value in series [1] (100 mg/kg i.p.) was determined as 3%. Further, the “tumor growth inhibition (TGI)” value in series [1] (100 mg/kg i.p. days 1-5, Day 19) is 38%. Also, in series [1] (100 mg/kg i.p. days 1-5, day 9), the “median TGI” value was 41%.
With `CC[C@H](Nc1nc(NCc2cccnc2)c2ncn(C(C)C)c2n1)[C@@H](C)O` [CCT068127], in the series with Colo205 (Homo sapiens, COLO 205, 72 h), the IC50 was found to be 820 nM.
For the compound `CC1(C)CCC(CN2CCN(c3ccc(C(=O)NS(=O)(=O)c4ccc(NCC5CCOCC5)c([N+](=O)[O-])c4)c(Oc4cnc5[nH]ccc5c4)c3)CC2)=C(c2ccc(Cl)cc2)C1` [ABT-199, reference compound], the IC50 in the series with THP-1 came to 60 nM.
Turning to `CN(C)CC[C@H](CSc1ccccc1)Nc1ccc(S(=O)(=O)NC(=O)c2ccc(N3CCN(Cc4ccccc4-c4ccc(Cl)cc4)CC3)cc2)cc1[N+](=O)[O-]` [ABT-737, reference compound], the IC50 with THP-1 worked out at 430 nM.
